Test results taken from patent US20200371122A1, “BIOMARKER FOR SENESCENT CELLS” (Buck Institute for Research on Aging, priority 2017, published 2020).

Columns and labels:
Type in all cases: in vivo, mouse
[1] = system: C57BL6/J and p16-3MR mice injured with bleomycin; assay: Bleomycin-induced pulmonary fibrosis in mice
Description: RNA was extracted from cells or tissues using commercially available kits (Isolate II—Bioline for cells; Direct-zol—Zymo for tissues) according to the manufacturer's instructions. cDNA synthesis was performed using a High Capacity cDNA Reverse Transcription Kit (Thermo Fisher) according to the manufacturer's instructions. Quantitative PCR was performed on a LightCycler 480 II (Roche) using primers and probes designed for the Universal Probe Library. Primers and probes used for human transcripts were ACTB: 5′-CCAACCGCGAGAAGATGA (SEQ ID NO:1), 5′-TCCATCACGATGCCAGTG (SEQ ID NO:2), Probe #64; TUBA: 5′-cttcgtctccgccatcag (SEQ ID NO:3), 5′-ttgccaatctggacacca (SEQ ID NO:4), Probe #58; ALOX5: 5′-[…] (SEQ ID NO:5), 5′-[…] (SEQ ID NO:6), Probe #64; ALOX5AP: 5′-ggtctgcggggctacttt (SEQ ID NO:7), 5′-[…] (SEQ ID NO:8), Probe #18; ALOX12: 5′-[…] (SEQ ID NO:9), 5′-agccaggtcgtcaggag (SEQ ID NO:10), Probe #32; ALOX15: 5′-[…] (SEQ ID NO:11), 5′-[…] (SEQ ID NO:12), Probe #76; ALOX15B: 5′-[…] (SEQ ID NO:13), 5′-actgggaggcgaagaagg (SEQ ID NO:14), Probe #51; AKR1C1: 5′-catgcctgtcctgggattt (SEQ ID NO:15), 5′-[…] (SEQ ID NO:16), Probe #49; AKR1C2: 5′-ctatgcgcctgcagaggt (SEQ ID NO:17), 5′-[…] (SEQ ID NO:18), Probe #31; AKR1C3: 5′-[…] (SEQ ID NO:19), 5′-[…] (SEQ ID NO:20), Probe #78; CYSLTR2: 5′-[…] (SEQ ID NO:21), 5′-[…] (SEQ ID NO:22), Probe #18; DPEP1: 5′-gacgtcctgaggctggtg (SEQ ID NO:23), 5′-[…] (SEQ ID NO:24), Probe #9 (SEQ ID NO:25), ELOVL2: 5′-[…] (SEQ ID NO:26), 5′-[…] (SEQ ID NO:27), Probe #53; ELOVL4: 5′-catttggcccatggattc (SEQ ID NO:28), 5′-[…] (SEQ ID NO:29), Probe #31; ELOVL5: 5′-cccttccatgcgtccata (SEQ ID NO:30), 5′-[…] (SEQ ID NO:31), Probe #31; EPHX2: 5′-ttctgctggacaccctgaa (SEQ ID NO:32), 5′-[…] (SEQ ID NO:33), Probe #45; GPX4: 5′-ttcccgtgtaaccagttcg (SEQ ID NO:34), 5′-[…] (SEQ ID NO:35), Probe #36; LTA4H: 5′-ctgctctcacggtccagtc (SEQ ID NO:36), 5′-[…] (SEQ ID NO:37), Probe #64; LTBR2: 5′-[…] (SEQ ID NO:38), 5′-[…] (SEQ ID NO:39), Probe #33; LTC4S: 5′-[…] (SEQ ID NO:40), 5′-[…] (SEQ ID NO:41), Probe #18; PTGDS: 5′-[…] (SEQ ID NO:42), 5′-[…] (SEQ ID NO:43), Probe #36; PTGES: 5′-agagatgcctgcccacag (SEQ ID NO:44), 5′-tggccaccacgtacatctt (SEQ ID NO:45), Probe #4; PTGES2: 5′-[…] (SEQ ID NO:46), 5′-[…] (SEQ ID NO:47), Probe #49; PTGES3 (SEQ ID NO:48), 5′-[…] (SEQ ID NO:49), 5′-[…] (SEQ ID NO:50), Probe #48; PTGIS: 5′-[…] (SEQ ID NO:51), 5′-[…] (SEQ ID NO:52), Probe #45; PTGR1: 5′-atgatggggcagcaagtg (SEQ ID NO:53), 5′-cccatcagaaatggagtgc (SEQ ID NO:54), Probe #64; PTGS1: 5′-[…] (SEQ ID NO:55), 5′-gtggtggtccatgttcctg (SEQ ID NO:56), Probe #81; PTGS2: 5′-gatccccagggctcaaac (SEQ ID NO:57), 5′-[…] (SEQ ID NO:58), Probe #61; TBXAS1: 5′-[…] (SEQ ID NO:59), 5′-tgcctcccgtgtgaatct (SEQ ID NO:60), Probe #73; AREG: 5′-[…] (SEQ ID NO:61), 5′-[…] (SEQ ID NO:62), Probe #73; CCL2: 5′-AGTCTCTGCCGCCCTTCT (SEQ ID NO:63), 5′-GTGACTGGGGCATTGATTG (SEQ ID NO:64), Probe #40; CCL27: 5′-[…] (SEQ ID NO:65), 5′-gctgggtggcagtaggaat (SEQ ID NO:66), Probe #18; CXCL1: 5′-[…] (SEQ ID NO:67), 5′-[…] (SEQ ID NO:68), Probe #52; HGF: 5′-[…] (SEQ ID NO:69), 5′-[…] (SEQ ID NO:70), Probe #49; ILIA: 5′-[…] (SEQ ID NO:71), 5′-[…] (SEQ ID NO:72), Probe #6; IL1B: 5′-[…] (SEQ ID NO:73), 5′-[…] (SEQ ID NO:74), Probe #78; IL6: 5′-[…] (SEQ ID NO:75), 5′-gaaggcagcaggcaacac (SEQ ID NO:76), Probe #45; IL8: 5′-[…] (SEQ ID NO:77), 5′-atggttccttccggtggt (SEQ ID NO:78), Probe #72; IL10: 5′-[…] (SEQ ID NO:79), 5′-[…] (SEQ ID NO:80), Probe #67; MMP3: 5′-[…] (SEQ ID NO:81), 5′-[…] (SEQ ID NO:82), Probe #36; PDGFA: 5′-[…] (SEQ ID NO:83), 5′-[…] […]

[2] = system: p16-positive cells; assay: Eicosanoid synthase gene expression in livers of doxorubicin-treated or aged p16-3MR mice; details: liver
Description: RNA was extracted from cells or tissues using commercially available kits (Isolate II—Bioline for cells; Direct-zol—Zymo for tissues) according to the manufacturer's instructions. cDNA synthesis was performed using a High Capacity cDNA Reverse Transcription Kit (Thermo Fisher) according to the manufacturer's instructions. Quantitative PCR was performed on a LightCycler 480 II (Roche) using primers and probes designed for the Universal Probe Library. Primers and probes used for human transcripts were ACTB: 5′-CCAACCGCGAGAAGATGA (SEQ ID NO:1), 5′-TCCATCACGATGCCAGTG (SEQ ID NO:2), Probe #64; TUBA: 5′-cttcgtctccgccatcag (SEQ ID NO:3), 5′-ttgccaatctggacacca (SEQ ID NO:4), Probe #58; ALOX5: 5′-[…] (SEQ ID NO:5), 5′-[…] (SEQ ID NO:6), Probe #64; ALOX5AP: 5′-ggtctgcggggctacttt (SEQ ID NO:7), 5′-[…] (SEQ ID NO:8), Probe #18; ALOX12: 5′-[…] (SEQ ID NO:9), 5′-agccaggtcgtcaggag (SEQ ID NO:10), Probe #32; ALOX15: 5′-[…] (SEQ ID NO:11), 5′-[…] (SEQ ID NO:12), Probe #76; ALOX15B: 5′-[…] (SEQ ID NO:13), 5′-actgggaggcgaagaagg (SEQ ID NO:14), Probe #51; AKR1C1: 5′-catgcctgtcctgggattt (SEQ ID NO:15), 5′-[…] (SEQ ID NO:16), Probe #49; AKR1C2: 5′-ctatgcgcctgcagaggt (SEQ ID NO:17), 5′-[…] (SEQ ID NO:18), Probe #31; AKR1C3: 5′-[…] (SEQ ID NO:19), 5′-[…] (SEQ ID NO:20), Probe #78; CYSLTR2: 5′-[…] (SEQ ID NO:21), 5′-[…] (SEQ ID NO:22), Probe #18; DPEP1: 5′-gacgtcctgaggctggtg (SEQ ID NO:23), 5′-[…] […]

[3] = system: C57BL6/J and p16-3MR mice injured with bleomycin; assay: Bleomycin-induced pulmonary fibrosis in mice; remark: listed apart in the source
[4] = bleomycin-treated animals, day 14, ELISA

## Nc1nc(O)c2ncn(COC(CO)CO)c2n1 [GCV, ganciclovir]
[1]; 14 days after bleomycin injury
  RNA levels of p16INK4a and p21WAF1 in lungs: significantly attenuated
[1]; bleomycin-injured mice, 21 days after injury as printed
  collagen expression (Col3a1 and Col4a1): reduced
[2]; doxorubicin-treated p16-3MR mice, day 10
  eicosanoid synthase expression: reduced
[2]; p16-3MR mice aged 21 months
  eicosanoid synthase expression: not statistically significant
[3]; 21 days after injury
  collagen content (hydroxyproline): reduced
[3]; [4]
  cysteinyl leukotrienes in bronchioalveolar lavage fluid (BALF): reduced
  prostaglandin E2 in bronchioalveolar lavage fluid (BALF): reduced
